Columns and labels:
[1] = tested on: MCF7 breast cancer, NCI-H460 lung cancer, and SF-268 CNS cancer; test: NCI in vitro 3-cell-line anticancer panel (overall statement); format: cell-based; settings: NCI 3-cell-line panel
Procedure: (§1) In vitro cytotoxicity tests were conducted at the NCI using an in vitro 3-cell-line panel consisting of MCF7 breast cancer, NCI-H460 lung cancer, and SF-268 CNS cancer. Each cell line was inoculated and incubated in microtiter plates. After 24 hours test samples were added to a final assay concentration of 2 μg/mL and the culture was incubated for 48 hours. Results for each test sample were reported as the percentage of growth of the treated cells when compared to untreated controls. Compounds which reduced the growth of any one of the cell lines […] against standard were considered to be active.

[2] = tested on: B16 melanoma; settings: previously reported for compounds from stem bark of Taxus baccata; cited from earlier work
[3] = tested on: MCF7 breast cancer; test: NCI in vitro cytotoxicity test, 3-cell-line panel: MCF7; format: cell-based; settings: 2 μg/mL, 48 hours incubation; less than 32% = active
Procedure: as §1

[4] = tested on: NCI-H460 lung cancer; test: NCI in vitro cytotoxicity test, 3-cell-line panel: NCI-H460; format: cell-based; settings: 2 μg/mL, 48 hours incubation; less than 32% = active
Procedure: as §1

[5] = tested on: SF-268 CNS cancer; test: NCI in vitro cytotoxicity test, 3-cell-line panel: SF-268; format: cell-based; settings: 2 μg/mL, 48 hours incubation; less than 32% = active
Procedure: as §1

SMILES	anticancer activity in the 3-cell-line anticancer panel (in words) [1]	activity against B16 melanoma (in words) [2]	MCF-7 Breast cancer, percentage of growth (One Dose Primary Anticancer Assay) [3] [%]	H-460 Lung cancer, percentage of growth (One Dose Primary Anticancer Assay) [4] [%]	SF-268 CNS cancer, percentage of growth (One Dose Primary Anticancer Assay) [5] [%]
CCCCCC(=O)N[C@@H](c1ccccc1)[C@@H](O)C(=O)O[C@H]1C[C@@]2(O)[C@@H](OC(=O)c3ccccc3)[C@@H]3[C@]4(OC(C)=O)CO[C@@H]4C[C@H](O[C@@H]4OC[C@@H](O)[C@H](O)[C@H]4O)[C@@]3(C)C(=O)[C@H](O)C(=C1C)C2(C)C [7-(β-xylosyl)-10-deacetyltaxol C]	active	potent activity			
CCCCCC(=O)N[C@@H](c1ccccc1)[C@@H](O)C(=O)O[C@H]1C[C@@]2(O)[C@@H](OC(=O)c3ccccc3)[C@@H]3[C@]4(OC(C)=O)CO[C@@H]4C[C@H](O[C@@H]4OC[C@@H](O)[C@H](O)[C@H]4O)[C@@]3(C)C(=O)[C@H](OC(C)=O)C(=C1C)C2(C)C [7-(β-xylosyl)-taxol C]	active	potent activity			
CC(=O)O[C@H]1C(=O)[C@]2(C)[C@@H](O[C@@H]3OC[C@@H](O)[C@H](O)[C@H]3O)C[C@H]3OC[C@@]3(OC(C)=O)[C@H]2[C@H](OC(=O)c2ccccc2)[C@]2(O)C[C@H](OC(=O)[C@H](O)[C@@H](NC(=O)c3ccccc3)c3ccccc3)C(C)=C1C2(C)C [7-(β-xylosyl)-taxol]	active	potent activity			
C/C=C(\C)C(=O)N[C@@H](c1ccccc1)[C@@H](O)C(=O)O[C@H]1C[C@@]2(O)[C@@H](OC(=O)c3ccccc3)[C@@H]3[C@]4(OC(C)=O)CO[C@@H]4C[C@H](O)[C@@]3(C)C(=O)[C@H](OC(C)=O)C(=C1C)C2(C)C [Cephalomanine]			15	19	30
CC(=O)O[C@H]1C(=O)[C@@]2(C)[C@H]([C@H](OC(=O)c3ccccc3)[C@]3(O)C[C@H](OC(=O)[C@H](O)[C@@H](NC(=O)c4ccccc4)c4ccccc4)C(C)=C1C3(C)C)[C@]1(OC(C)=O)CO[C@@H]1C[C@@H]2O [Paclitaxel]			23	13	30
CC(=O)O[C@H]1C(=O)[C@@]2(C)[C@H]([C@H](OC(=O)c3ccccc3)[C@]3(O)C[C@H](OC(=O)[C@H](O)[C@@H](NC(=O)c4ccccc4)c4ccccc4)C(C)=C1C3(C)C)[C@]1(OC(C)=O)CO[C@@H]1C[C@@H]2O [TX003-17, paclitaxel]	exhibited activity in all three cell lines		21	30	29

Source: patent US7367933B2, “Screening of chemical compounds purified from biological sources” (Sequoia Sciences, Inc., priority 1999, dated 2008)
